Source: patent US20220362396A1, “AMINO-PYRAZINECARBOXAMIDE COMPOUNDS, CONJUGATES, AND USES THEREOF” (Silverback Therapeutics, Inc., priority 2018, published 2022)

Key:
TGFBR2 = molecular target: T1, TGFBR2 (Homo sapiens, UniProt P37173); assay: TGFBR2 RBC assay (enzyme inhibition assay, Reaction Biology Corp.); assay type: biochemical
T1 construct: purchased Reaction Biology Corp
Description: Compounds of the disclosure were also assayed by Reaction Biology Corp. using the TGFBR2 RBC assay (enzyme inhibition assay). […] NT refers to not tested.

[1] = tested on: TGFβ/SMAD Signaling Pathway SBE reporter cell line; assay: TGFβ reporter assay, in vitro small molecule screening (luciferase); assay type: cell-based; details: TGFβ stimulation, luminescence
Description: TGFβ/SMAD Signaling Pathway SBE reporter cell line was obtained from BPS Bioscience. Cells were passed, expanded, and stored in liquid nitrogen as per the supplier's instructions with the exception that growth media is changed to DMEM-C with Geneticin (DMEM supplemented with 10% fetal bovine serum, 1×NEAA, 1 mM Pyruvate, 2 mM glutamine, 50 μg/mL penicillin, 50 U/mL streptomycin and 400 μg/mL of Geneticin). The assay media was MEM supplemented with 0.5% fetal bovine serum, 1×NEAA, 1 mM Pyruvate, 50 μg/mL penicillin and 50 U/mL streptomycin.
Test samples (at desired concentrations diluted in assay media) were added to a 96-well assay plate, 20 μL per well. Reporter cells were harvested from the tissue culture flasks by incubation in small quantity of PBS at 37° C. for two minutes after the media in the flask is removed and cells rinsed with PBS. Cells were counted and diluted in the assay media at approximately 0.5×10^6 cells/mL and then 80 μL/well of cells were added to the assay plate containing the 20 μL/well of test samples (or media only), and incubated for approximately 5-6 hours at 37° C. in a 5% CO2 humidified incubator. After that time, 15 μL of TGFβ diluted to 12 ng/mL in the assay media was added to the plate. Controls included TGFβ titration (from 50 to 0 ng/mL) without inhibitors, and media only (without cells, inhibitor or TGFβ). Plates were incubated at 37° C. in a 5% CO2 humidified incubator for 18 h. Luciferase substrate solution is subsequently added at 100 μL per well, incubated in the dark at room temperature for 15 min, and luminescence is measured using a luminometer. EC50 values and curve fits were obtained using Prism (GraphPad Software).

T1 sequence (P37173 23-567): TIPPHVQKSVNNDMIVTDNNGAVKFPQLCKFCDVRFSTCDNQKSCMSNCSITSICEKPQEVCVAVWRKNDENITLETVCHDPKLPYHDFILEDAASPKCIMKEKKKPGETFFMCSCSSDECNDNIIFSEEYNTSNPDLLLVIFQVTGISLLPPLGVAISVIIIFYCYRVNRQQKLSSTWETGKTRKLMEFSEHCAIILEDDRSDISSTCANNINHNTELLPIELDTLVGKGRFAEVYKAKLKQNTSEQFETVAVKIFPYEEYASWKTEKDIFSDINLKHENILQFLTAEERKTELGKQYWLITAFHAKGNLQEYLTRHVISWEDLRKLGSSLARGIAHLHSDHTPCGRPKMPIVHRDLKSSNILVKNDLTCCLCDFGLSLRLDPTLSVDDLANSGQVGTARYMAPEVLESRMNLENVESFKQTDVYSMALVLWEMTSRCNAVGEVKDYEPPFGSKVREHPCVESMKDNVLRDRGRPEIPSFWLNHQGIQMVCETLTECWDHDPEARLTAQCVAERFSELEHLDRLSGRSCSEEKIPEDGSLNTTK

Nc1ncc(-c2ccc(CCNC(=O)OCc3ccccc3)cc2)nc1C(=O)Nc1cnccc1N1CCOCC1 [Compound 1.1, Benzyl (4-(5-amino-6-((4-morpholinopyridin-3-yl)carbamoyl)pyrazin-2-yl)phenethyl)carbamate]
IC50 (TGFBR2): < 50 nM
EC50 [1]: 100 to 1000 nM

Nc1ncc(-c2ccc(CCCNC(=O)OCc3ccccc3)cc2)nc1C(=O)Nc1cnccc1N1CCOCC1 [Compound 1.2]
IC50 (TGFBR2): < 50 nM
EC50 [1]: 100 to 1000 nM

NCCCc1ccc(-c2cnc(N)c(C(=O)Nc3cnccc3N3CCOCC3)n2)cc1 [Compound 2.1, 3-Amino-6-(4-(3-aminopropyl)phenyl)-N-(4-morpholinopyridin-3-yl)pyrazine-2-carboxamide]
IC50 (TGFBR2): < 50 nM
EC50 [1]: 50 to 100 nM

Cc1nccn1-c1ccncc1NC(=O)c1nc(-c2ccc(CCNC(=O)OCc3ccccc3)cc2)cnc1N [Compound 3.1, Benzyl (4-(5-amino-6-((4-(2-methyl-1H-imidazol-1-yl)pyridin-3-yl)carbamoyl)pyrazin-2-yl)phenethyl)carbamate]
IC50 (TGFBR2): < 50 nM
EC50 [1]: 100 to 1000 nM

Cc1nccn1-c1ccncc1NC(=O)c1nc(-c2ccc(CCN)cc2)cnc1N [Compound 4.1, 3-Amino-6-(4-(2-aminoethyl)phenyl)-N-(4-(2-methyl-1H-imidazol-1-yl)pyridin-3-yl)pyrazine-2-carboxamide]
IC50 (TGFBR2): < 50 nM
EC50 [1]: 100 to 1000 nM

Nc1ncc(-c2ccc(CCNC(=O)OCc3ccccc3)cc2)nc1C(=O)Nc1cnccc1-c1ccncc1 [Compound 5.1, Benzyl (4-(6-([4,4′-bipyridin]-3-ylcarbamoyl)-5-aminopyrazin-2-yl)phenethyl)carbamate]
IC50 (TGFBR2): < 50 nM
EC50 [1]: 100 to 1000 nM

NCCc1ccc(-c2cnc(N)c(C(=O)Nc3cnccc3N3CCOCC3)n2)cc1 [Compound 6]
IC50 (TGFBR2): < 50 nM
EC50 [1]: 50 to 100 nM

NCc1ccc(-c2cnc(N)c(C(=O)Nc3cnccc3N3CCOCC3)n2)cc1 [Compound 7]
IC50 (TGFBR2): < 50 nM
EC50 [1]: 50 to 100 nM

NCCc1ccc(-c2cnc(N)c(C(=O)Nc3cnccc3N3CCOCC3CO)n2)cc1 (stereo not shown) [Compound 8]
EC50 [1]: 100 to 1000 nM

N#Cc1cnccc1-c1ccncc1NC(=O)c1nc(-c2ccc(CCNC(=O)OCc3ccccc3)cc2)cnc1N [Compound 9]
EC50 [1]: 100 to 1000 nM

N#Cc1cnccc1-c1ccncc1NC(=O)c1nc(-c2ccc(CCNC(=O)OCc3ccccc3)cc2)cnc1N [Compound 10]
EC50 [1]: > 1000 nM

Nc1ncc(-c2ccc(CCNC(=O)[C@H](CCC(=O)O)NC(=O)OCc3ccccc3)cc2)nc1C(=O)Nc1cnccc1N1CCOCC1 [Compound 11]
EC50 [1]: > 1000 nM

CC(C)(C)OC(=O)N[C@@H](CCCCN)C(=O)NCCc1ccc(-c2cnc(N)c(C(=O)Nc3cnccc3N3CCOCC3)n2)cc1 [Compound 12]
EC50 [1]: 100 to 1000 nM

N#Cc1ncccc1-c1ccncc1NC(=O)c1nc(-c2ccc(CCNC(=O)OCc3ccccc3)cc2)cnc1N [Compound 13]
EC50 [1]: > 1000 nM

COc1ccc(-c2ccncc2NC(=O)c2nc(-c3ccc(CCNC(=O)OCc4ccccc4)cc3)cnc2N)cc1 [Compound 14]
IC50 (TGFBR2): > 1000 nM
EC50 [1]: > 1000 nM

N#Cc1ccc(-c2ccncc2NC(=O)c2nc(-c3ccc(CCNC(=O)OCc4ccccc4)cc3)cnc2N)cc1 [Compound 15]
IC50 (TGFBR2): 100 to 1000 nM
EC50 [1]: 100 to 1000 nM

COc1ccc(-c2ccncc2NC(=O)c2nc(-c3ccc(CCNC(=O)OCc4ccccc4)cc3)cnc2N)cn1 [Compound 16]
IC50 (TGFBR2): < 50 nM
EC50 [1]: 100 to 1000 nM

Cc1cc(-c2ccncc2NC(=O)c2nc(-c3ccc(CCNC(=O)OCc4ccccc4)cc3)cnc2N)ccn1 [Compound 17]
IC50 (TGFBR2): 100 to 1000 nM
EC50 [1]: 100 to 1000 nM

Nc1ncc(-c2ccc(CCNC(=O)OCc3ccccc3)cc2)nc1C(=O)Nc1cnccc1-c1ccnc(Cl)c1 [Compound 18]
IC50 (TGFBR2): > 1000 nM
EC50 [1]: 100 to 1000 nM

Nc1ncc(-c2ccc(CCNC(=O)OCc3ccccc3)cc2)nc1C(=O)Nc1cnccc1-c1ccnc2ccccc12 [Compound 19]
IC50 (TGFBR2): > 1000 nM
EC50 [1]: > 1000 nM

Nc1ncc(-c2ccc(CCNC(=O)OCc3ccccc3)cc2)nc1C(=O)Nc1cnccc1-c1ccc(F)cc1 [Compound 20]
IC50 (TGFBR2): > 1000 nM
EC50 [1]: > 1000 nM

COc1cc(-c2ccncc2NC(=O)c2nc(-c3ccc(CCNC(=O)OCc4ccccc4)cc3)cnc2N)ccn1 [Compound 21]
IC50 (TGFBR2): > 1000 nM
EC50 [1]: 100 to 1000 nM

Nc1ncc(-c2ccc(CCNC(=O)OCc3ccccc3)cc2)nc1C(=O)Nc1cnccc1-c1ccc(=O)[nH]c1 [Compound 22]
IC50 (TGFBR2): 100 to 1000 nM
EC50 [1]: 50 to 100 nM

Nc1ncc(-c2ccc(CCNC(=O)OCc3ccccc3)cc2)nc1C(=O)Nc1cnccc1-c1ccncc1F [Compound 23]
IC50 (TGFBR2): < 50 nM
EC50 [1]: 100 to 1000 nM

COc1cccc(-c2ccncc2NC(=O)c2nc(-c3ccc(CCNC(=O)OCc4ccccc4)cc3)cnc2N)c1 [Compound 24]
IC50 (TGFBR2): 100 to 1000 nM
EC50 [1]: 100 to 1000 nM

Nc1ncc(-c2ccc(OCCNC(=O)OCc3ccccc3)cc2)nc1C(=O)Nc1cnccc1N1CCOCC1 [Compound 45]
IC50 (TGFBR2): < 50 nM

CC(=O)c1ccc(C(=O)NCCc2ccc(-c3cnc(N)c(C(=O)Nc4cnccc4N4CCOCC4)n3)cc2)cc1 [Compound 58]
EC50 [1]: 100 to 1000 nM
